# Results: article PMC8155022 (Scientific Reports, 2021)
# Read-outs that look alike come from different tables or passages of the source.
# Tests used:
# IRAK4(h) = molecular target: T1, IRAK4(h) (Homo sapiens, UniProt Q9NWZ3); assay: Kinase panel; assay type: biochemical
# T1 construct: purchased Cerep (receptors, ion channels, transporters); Eurofins Panlabs (kinases)
# Experimental: (§1) Kinase selectivity was conducted by Eurofins Panlabs Inc (St Charles, MO).
# ZIPK(h) = molecular target: T2, ZIPK(h) (Homo sapiens, UniProt O43293); assay: Kinase panel; assay type: biochemical
# T2 construct: purchased Cerep (receptors, ion channels, transporters); Eurofins Panlabs (kinases)
# Experimental: as §1
# PKCα(h) = molecular target: T3, PKCα(h) (Homo sapiens, UniProt P17252); assay: Kinase panel; assay type: biochemical
# T3 construct: purchased Cerep (receptors, ion channels, transporters); Eurofins Panlabs (kinases)
# Experimental: as §1
# NK3 (h) = molecular target: T4, NK3 (h) (Homo sapiens, UniProt P29371); assay: Cerep panel; assay type: binding
# T4 construct: purchased Cerep (receptors, ion channels, transporters); Eurofins Panlabs (kinases)
# Experimental: (§2) A panel of 52 different receptors, ion channels and transporters was tested by Cerep, Inc. (Redmond, WA).
# B2 (h) = molecular target: T5, B2 (h) (Homo sapiens, UniProt P30411); assay: Cerep panel; assay type: binding
# T5 construct: purchased Cerep (receptors, ion channels, transporters); Eurofins Panlabs (kinases)
# Experimental: as §2
# AT1 = AT1 (Homo sapiens, UniProt P30556); assay: GPCR panel, cAMP or calcium FLIPR assays; assay type: cell-based
# Experimental: (§3) 28 GPCRs were evaluated through cAMP or calcium FLIPR assays[67].
# Plk3(h) = molecular target: T6, Plk3(h) (Homo sapiens, UniProt Q9H4B4); assay: Kinase panel; assay type: biochemical
# T6 construct: purchased Cerep (receptors, ion channels, transporters); Eurofins Panlabs (kinases)
# Experimental: as §1
# EGFR(h) = molecular target: T7, EGFR(h) (Homo sapiens, UniProt P00533); assay: Kinase panel; assay type: biochemical
# T7 construct: purchased Cerep (receptors, ion channels, transporters); Eurofins Panlabs (kinases)
# Experimental: as §1
# [1] = phase 1 single ascending dose study, pharmacokinetics; assay type: in vivo, human; details: for Tmax: median (range)
# Experimental: Based on mean values, dose normalized overall exposure (AUC216h, AUC∞) also appeared to increase proportionally with dose.
# Informed consent was obtained from all participants. No formal sample size and power calculations were performed.
# Plasma samples with K2EDTA anticoagulant were treated with acetonitrile for protein extraction then processed with liquid chromatography coupled to tandem mass spectrometry. Reversed-phase HPLC separation was used and tandem MS/MS detection was set in TIS positive mode. […] All the data reported in sample analysis and validation met the predefined acceptance criteria and fulfilled the requirements and recommendations in the current FDA guidance for bioanalytical method validations and analysis.
# Cl- channel = assay: Cerep panel; assay type: binding
# Experimental: as §2
# kappa (KOP) = molecular target: T8, kappa (KOP) (Rattus norvegicus, UniProt P34975); assay: Cerep panel; assay type: binding
# T8 construct: purchased Cerep (receptors, ion channels, transporters); Eurofins Panlabs (kinases)
# Experimental: as §2
# NE-T transporter (h) = molecular target: T9, NE-T transporter (h) (Homo sapiens, UniProt P23975); assay: Cerep panel; assay type: binding
# T9 construct: purchased Cerep (receptors, ion channels, transporters); Eurofins Panlabs (kinases)
# Experimental: as §2
# NT1 (h) (NTS1) = molecular target: T10, NT1 (h) (NTS1) (Homo sapiens, UniProt P30989); assay: Cerep panel; assay type: binding
# T10 construct: purchased Cerep (receptors, ion channels, transporters); Eurofins Panlabs (kinases)
# Experimental: as §2
# NK2 (h) = molecular target: T11, NK2 (h) (Homo sapiens, UniProt P21452); assay: Cerep panel; assay type: binding
# T11 construct: purchased Cerep (receptors, ion channels, transporters); Eurofins Panlabs (kinases)
# T11 sequence (P21452 1-398): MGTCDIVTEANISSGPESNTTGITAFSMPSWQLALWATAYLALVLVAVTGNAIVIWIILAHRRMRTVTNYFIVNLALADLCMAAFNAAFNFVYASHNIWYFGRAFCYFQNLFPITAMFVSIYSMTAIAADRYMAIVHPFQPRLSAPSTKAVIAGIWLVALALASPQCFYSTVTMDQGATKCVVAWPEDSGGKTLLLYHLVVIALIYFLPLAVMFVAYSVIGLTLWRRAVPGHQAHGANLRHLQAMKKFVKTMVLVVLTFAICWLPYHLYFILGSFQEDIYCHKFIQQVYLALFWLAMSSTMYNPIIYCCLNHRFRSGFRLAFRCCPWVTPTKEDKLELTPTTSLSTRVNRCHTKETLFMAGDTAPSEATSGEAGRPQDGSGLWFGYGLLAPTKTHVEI
# Experimental: 28 GPCRs were evaluated through cAMP or calcium FLIPR assays[67]. A panel of 52 different receptors, ion channels and transporters was tested by Cerep, Inc. (Redmond, WA). Kinase selectivity was conducted by Eurofins Panlabs Inc (St Charles, MO).
# TRα = TRα (Homo sapiens, UniProt P10827); assay: nuclear receptor cellular GAL4 reporter assay; assay type: cell-based; details: agonist and antagonist mode; read-out: potency in agonist and antagonist mode
# 5-HT5A (h) = molecular target: T12, 5-HT5A (h) (Homo sapiens, UniProt P47898); assay: Cerep panel; assay type: binding
# T12 construct: purchased Cerep (receptors, ion channels, transporters); Eurofins Panlabs (kinases)
# Experimental: as §2
# M2 = M2 (Homo sapiens, UniProt P08172); assay: GPCR panel, cAMP or calcium FLIPR assays; assay type: cell-based
# Experimental: as §3
# CaMKIIβ(h) = molecular target: T13, CaMKIIβ(h) (Homo sapiens, UniProt Q13554); assay: Kinase panel; assay type: biochemical
# T13 construct: purchased Cerep (receptors, ion channels, transporters); Eurofins Panlabs (kinases)
# Experimental: as §1
# Rsk3(h) = molecular target: T14, Rsk3(h) (Homo sapiens, UniProt Q15349); assay: Kinase panel; assay type: biochemical
# T14 construct: purchased Cerep (receptors, ion channels, transporters); Eurofins Panlabs (kinases)
# Experimental: as §1
# plasma protein binding = assay type: in vitro ADME; details: human
# CDK5/p35(h) = molecular target: T15, CDK5/p35(h) (Homo sapiens, UniProt Q00535); assay: Kinase panel; assay type: biochemical
# T15 construct: purchased Cerep (receptors, ion channels, transporters); Eurofins Panlabs (kinases)
# Experimental: as §1
# FGFR1(h) = molecular target: T16, FGFR1(h) (Homo sapiens, UniProt P11362); assay: Kinase panel; assay type: biochemical
# T16 construct: purchased Cerep (receptors, ion channels, transporters); Eurofins Panlabs (kinases)
# Experimental: as §1
# PKCβI(h) = molecular target: T17, PKCβI(h) (Homo sapiens, UniProt P05771); assay: Kinase panel; assay type: biochemical
# T17 construct: purchased Cerep (receptors, ion channels, transporters); Eurofins Panlabs (kinases)
# Experimental: as §1
# [2] = both sexes, human, plasma, po, 10 mg, 10 mg single oral dose, fasted, n=6, mean (SD)
# [3] = both sexes, human, plasma, po, 30 mg, 30 mg single oral dose, fasted, n=6, mean (SD)
# [4] = both sexes, human, plasma, po, 100 mg, 100 mg single oral dose, fasted, n=9, mean (SD)
# [5] = both sexes, human, plasma, po, 100 mg, 100 mg single oral dose, fed, n=9, mean (SD)
# [6] = both sexes, human, plasma, po, 200 mg, 200 mg single oral dose, fasted, n=6, mean (SD)
# T13 sequence (Q13554 whole entry): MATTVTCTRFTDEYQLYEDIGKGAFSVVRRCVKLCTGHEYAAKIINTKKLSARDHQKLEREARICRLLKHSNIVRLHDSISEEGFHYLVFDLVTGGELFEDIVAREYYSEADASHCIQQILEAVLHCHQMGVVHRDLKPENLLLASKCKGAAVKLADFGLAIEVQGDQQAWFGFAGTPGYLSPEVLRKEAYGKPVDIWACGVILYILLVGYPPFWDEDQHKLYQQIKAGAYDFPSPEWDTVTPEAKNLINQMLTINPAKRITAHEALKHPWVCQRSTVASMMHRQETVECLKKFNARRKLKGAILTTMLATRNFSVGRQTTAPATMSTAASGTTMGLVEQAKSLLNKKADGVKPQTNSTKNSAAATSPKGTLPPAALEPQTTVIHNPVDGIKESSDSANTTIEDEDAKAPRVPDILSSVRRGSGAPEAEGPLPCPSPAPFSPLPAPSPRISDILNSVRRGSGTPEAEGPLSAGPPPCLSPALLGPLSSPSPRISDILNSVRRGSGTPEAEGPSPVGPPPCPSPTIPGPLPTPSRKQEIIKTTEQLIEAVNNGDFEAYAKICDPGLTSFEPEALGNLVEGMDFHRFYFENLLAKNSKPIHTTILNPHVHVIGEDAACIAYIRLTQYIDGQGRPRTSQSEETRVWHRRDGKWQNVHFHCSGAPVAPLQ
# T4 sequence (P29371 whole entry): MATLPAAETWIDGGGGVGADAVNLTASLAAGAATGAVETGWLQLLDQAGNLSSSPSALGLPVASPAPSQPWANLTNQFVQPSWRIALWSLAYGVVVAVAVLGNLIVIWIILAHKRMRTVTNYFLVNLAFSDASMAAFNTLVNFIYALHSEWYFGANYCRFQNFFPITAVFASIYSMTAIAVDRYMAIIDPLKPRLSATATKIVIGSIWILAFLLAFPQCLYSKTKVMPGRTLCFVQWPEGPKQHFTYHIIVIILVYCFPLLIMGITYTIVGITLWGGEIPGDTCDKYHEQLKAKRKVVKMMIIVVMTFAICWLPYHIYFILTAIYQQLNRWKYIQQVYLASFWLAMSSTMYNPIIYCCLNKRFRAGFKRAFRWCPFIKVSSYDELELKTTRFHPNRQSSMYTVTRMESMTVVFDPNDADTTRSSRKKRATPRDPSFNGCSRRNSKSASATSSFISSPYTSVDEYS
# T14 sequence (Q15349 whole entry): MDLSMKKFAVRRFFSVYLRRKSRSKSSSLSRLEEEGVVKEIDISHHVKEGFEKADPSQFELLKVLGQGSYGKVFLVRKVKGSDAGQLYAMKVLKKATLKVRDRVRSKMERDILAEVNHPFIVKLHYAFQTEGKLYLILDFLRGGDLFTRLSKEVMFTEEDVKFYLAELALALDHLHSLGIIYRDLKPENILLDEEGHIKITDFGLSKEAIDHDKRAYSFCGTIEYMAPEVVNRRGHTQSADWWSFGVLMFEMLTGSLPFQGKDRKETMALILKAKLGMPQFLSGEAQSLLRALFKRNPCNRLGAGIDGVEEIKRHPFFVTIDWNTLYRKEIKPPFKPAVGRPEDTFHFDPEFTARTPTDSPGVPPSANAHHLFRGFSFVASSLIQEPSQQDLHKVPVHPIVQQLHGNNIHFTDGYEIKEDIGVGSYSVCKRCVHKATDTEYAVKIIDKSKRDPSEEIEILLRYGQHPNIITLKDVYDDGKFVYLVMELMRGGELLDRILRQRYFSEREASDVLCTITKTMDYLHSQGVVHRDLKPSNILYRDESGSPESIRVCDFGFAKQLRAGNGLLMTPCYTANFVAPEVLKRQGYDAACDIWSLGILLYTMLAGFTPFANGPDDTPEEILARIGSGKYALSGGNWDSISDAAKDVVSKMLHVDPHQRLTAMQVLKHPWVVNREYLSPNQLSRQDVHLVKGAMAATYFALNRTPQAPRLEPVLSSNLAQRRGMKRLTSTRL
# T10 sequence (P30989 whole entry): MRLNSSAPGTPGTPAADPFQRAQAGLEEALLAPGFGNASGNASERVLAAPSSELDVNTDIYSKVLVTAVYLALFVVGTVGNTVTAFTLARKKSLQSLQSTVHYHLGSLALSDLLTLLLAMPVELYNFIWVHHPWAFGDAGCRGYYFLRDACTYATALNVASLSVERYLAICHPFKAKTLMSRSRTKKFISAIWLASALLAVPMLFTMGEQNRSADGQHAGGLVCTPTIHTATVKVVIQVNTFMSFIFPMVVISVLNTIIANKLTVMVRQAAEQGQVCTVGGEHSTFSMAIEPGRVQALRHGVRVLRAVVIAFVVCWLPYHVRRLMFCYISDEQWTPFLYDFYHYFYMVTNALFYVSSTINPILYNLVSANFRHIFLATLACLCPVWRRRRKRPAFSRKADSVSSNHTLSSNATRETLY
# Sequence of AT1 (P30556 whole entry): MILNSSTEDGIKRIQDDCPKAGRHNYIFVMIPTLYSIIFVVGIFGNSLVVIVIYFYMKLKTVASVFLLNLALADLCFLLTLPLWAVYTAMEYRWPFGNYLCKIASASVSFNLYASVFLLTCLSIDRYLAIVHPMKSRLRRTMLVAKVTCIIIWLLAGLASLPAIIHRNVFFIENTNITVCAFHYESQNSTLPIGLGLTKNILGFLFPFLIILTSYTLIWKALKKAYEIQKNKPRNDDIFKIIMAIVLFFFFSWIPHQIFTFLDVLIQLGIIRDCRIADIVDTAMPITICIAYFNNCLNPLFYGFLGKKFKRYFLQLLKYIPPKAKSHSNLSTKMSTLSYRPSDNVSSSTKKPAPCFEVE
# T5 sequence (P30411 whole entry): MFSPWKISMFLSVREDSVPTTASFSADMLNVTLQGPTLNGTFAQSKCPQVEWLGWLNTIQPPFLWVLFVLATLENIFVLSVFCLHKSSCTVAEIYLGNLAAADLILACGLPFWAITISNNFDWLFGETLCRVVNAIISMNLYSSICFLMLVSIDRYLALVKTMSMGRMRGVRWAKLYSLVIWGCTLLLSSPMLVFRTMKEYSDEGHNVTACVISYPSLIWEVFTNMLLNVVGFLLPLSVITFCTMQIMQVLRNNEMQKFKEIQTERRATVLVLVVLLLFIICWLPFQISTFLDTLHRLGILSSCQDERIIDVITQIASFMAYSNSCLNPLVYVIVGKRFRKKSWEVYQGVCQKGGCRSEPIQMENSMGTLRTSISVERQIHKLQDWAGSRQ
# T7 sequence (P00533 25-1210): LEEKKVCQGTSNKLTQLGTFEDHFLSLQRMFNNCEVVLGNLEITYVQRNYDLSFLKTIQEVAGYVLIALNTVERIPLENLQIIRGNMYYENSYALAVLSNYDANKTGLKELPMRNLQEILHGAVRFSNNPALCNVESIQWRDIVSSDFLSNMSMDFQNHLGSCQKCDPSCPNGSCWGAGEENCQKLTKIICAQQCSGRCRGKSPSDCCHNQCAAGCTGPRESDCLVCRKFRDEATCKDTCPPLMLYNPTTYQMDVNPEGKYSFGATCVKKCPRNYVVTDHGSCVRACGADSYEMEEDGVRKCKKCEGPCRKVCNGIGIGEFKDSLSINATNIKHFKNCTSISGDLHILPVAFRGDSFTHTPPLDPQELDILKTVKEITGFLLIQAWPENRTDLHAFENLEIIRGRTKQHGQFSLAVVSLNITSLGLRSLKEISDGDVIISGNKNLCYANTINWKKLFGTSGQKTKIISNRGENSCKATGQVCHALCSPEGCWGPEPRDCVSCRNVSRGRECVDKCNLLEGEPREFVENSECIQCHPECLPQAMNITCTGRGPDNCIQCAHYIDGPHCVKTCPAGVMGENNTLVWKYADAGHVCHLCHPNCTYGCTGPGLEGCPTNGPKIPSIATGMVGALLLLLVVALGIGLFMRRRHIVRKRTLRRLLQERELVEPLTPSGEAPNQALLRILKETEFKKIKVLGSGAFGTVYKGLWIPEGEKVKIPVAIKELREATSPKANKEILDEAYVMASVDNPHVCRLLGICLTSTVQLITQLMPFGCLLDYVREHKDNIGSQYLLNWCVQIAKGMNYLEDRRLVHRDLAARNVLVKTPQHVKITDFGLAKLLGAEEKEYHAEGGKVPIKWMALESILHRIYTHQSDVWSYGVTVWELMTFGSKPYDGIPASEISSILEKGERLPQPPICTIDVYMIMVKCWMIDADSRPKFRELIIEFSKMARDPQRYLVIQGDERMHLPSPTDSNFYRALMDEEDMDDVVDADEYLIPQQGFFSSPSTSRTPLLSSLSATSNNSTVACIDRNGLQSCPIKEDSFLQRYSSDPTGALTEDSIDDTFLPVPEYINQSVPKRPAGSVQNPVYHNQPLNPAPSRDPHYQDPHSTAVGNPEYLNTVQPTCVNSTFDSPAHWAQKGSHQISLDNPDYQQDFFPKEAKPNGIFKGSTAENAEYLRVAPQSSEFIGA
smiles,measurement,setting,value
CC1CCCN1C(=O)c1nc(C(=O)NCC(C)(C)O)sc1-c1ccc(C(O)(C(F)(F)F)C(F)(F)F)c(Cl)c1Cl (stereo not shown) [JNJ-61803534],activity at 1 µM,IRAK4(h),113%
same,activity at 10 µM,IRAK4(h),112%
same,activity at 1 µM,ZIPK(h),113%
same,activity at 10 µM,ZIPK(h),120%
same,activity at 1 µM,PKCα(h),102%
same,activity at 10 µM,PKCα(h),99%
same,inhibition at 1 µM,NK3 (h),< 10%
same,inhibition at 10 µM,NK3 (h),< 10%
same,inhibition at 1 µM,B2 (h),< 10%
same,inhibition at 10 µM,B2 (h),< 10%
same,EC50,AT1; agonist,> 5 µM
same,IC50,AT1; antagonist,> 5 µM
same,activity at 1 µM,Plk3(h),120%
same,activity at 10 µM,Plk3(h),114%
same,activity at 1 µM,EGFR(h),100%
same,activity at 10 µM,EGFR(h),101%
same,Tmax,"[1]; 100 mg single oral dose, fed, n=9",12 h
same,AUC(0-inf),[1]; [2],8480 ng·h/mL
same,Cmax,[1]; [2],35.9 ng/mL
same,AUC(0-t),"[1]; both sexes, human, plasma, po, 10 mg, 10 mg single oral dose, fasted, n=6, mean (SD), read-out: AUC216h",5180 ng·h/mL
same,half-life,"[1]; both sexes, human, plasma, po, 10 mg, 10 mg single oral dose, fasted, n=6, mean (SD), read-out: t1/2 (converted)",168 h
same,Tmax,"[1]; both sexes, human, plasma, po, 10 mg, 10 mg single oral dose, fasted, n=6, read-out: tmax",10 h
same,AUC(0-inf),[1]; [3],28700 ng·h/mL
same,Cmax,[1]; [3],146 ng/mL
same,AUC(0-t),"[1]; both sexes, human, plasma, po, 30 mg, 30 mg single oral dose, fasted, n=6, mean (SD), read-out: AUC216h",17400 ng·h/mL
same,half-life,"[1]; both sexes, human, plasma, po, 30 mg, 30 mg single oral dose, fasted, n=6, mean (SD), read-out: t1/2 (converted)",170 h
same,Tmax,"[1]; both sexes, human, plasma, po, 30 mg, 30 mg single oral dose, fasted, n=6, read-out: tmax",6.02 h
same,AUC(0-inf),[1]; [4],100000 ng·h/mL
same,Cmax,[1]; [4],700 ng/mL
same,AUC(0-t),"[1]; both sexes, human, plasma, po, 100 mg, 100 mg single oral dose, fasted, n=9, mean (SD), read-out: AUC216h",68400 ng·h/mL
same,AUC(0-t),"[1]; both sexes, human, plasma, po, 100 mg, 100 mg single oral dose, fasted, n=9, mean (SD), read-out: AUClast",99100 ng·h/mL
same,half-life,"[1]; both sexes, human, plasma, po, 100 mg, 100 mg single oral dose, fasted, n=9, mean (SD), read-out: t1/2 (converted)",170 h
same,Tmax,"[1]; both sexes, human, plasma, po, 100 mg, 100 mg single oral dose, fasted, n=9, read-out: tmax",6 h
same,AUC(0-inf),[1]; [5],90400 ng·h/mL
same,Cmax,[1]; [5],602 ng/mL
same,AUC(0-t),"[1]; both sexes, human, plasma, po, 100 mg, 100 mg single oral dose, fed, n=9, mean (SD), read-out: AUC216h",61700 ng·h/mL
same,AUC(0-t),"[1]; both sexes, human, plasma, po, 100 mg, 100 mg single oral dose, fed, n=9, mean (SD), read-out: AUClast",89700 ng·h/mL
same,half-life,"[1]; both sexes, human, plasma, po, 100 mg, 100 mg single oral dose, fed, n=9, mean (SD), read-out: t1/2 (converted)",168 h
same,Tmax,"[1]; both sexes, human, plasma, po, 100 mg, 100 mg single oral dose, fed, n=9, read-out: tmax",12 h
same,AUC(0-inf),[1]; [6],201000 ng·h/mL
same,Cmax,[1]; [6],1810 ng/mL
same,AUC(0-t),"[1]; both sexes, human, plasma, po, 200 mg, 200 mg single oral dose, fasted, n=6, mean (SD), read-out: AUC216h",154000 ng·h/mL
same,AUC(0-t),"[1]; both sexes, human, plasma, po, 200 mg, 200 mg single oral dose, fasted, n=6, mean (SD), read-out: AUClast",200000 ng·h/mL
same,half-life,"[1]; both sexes, human, plasma, po, 200 mg, 200 mg single oral dose, fasted, n=6, mean (SD), read-out: t1/2 (converted)",164 h
same,Tmax,"[1]; both sexes, human, plasma, po, 200 mg, 200 mg single oral dose, fasted, n=6, read-out: tmax",6 h
same,half-life,"[1]; both sexes, human, plasma, po, single oral doses 10 to 200 mg, read-out: plasma half-life, mean T1/2 values across the dose groups",164 to 170 h
same,% Inhibition at 1 µM,Cl- channel; 1 µM,10.5%
same,% Inhibition at 10 µM,Cl- channel; 10 µM,86.4%
same,inhibition at 1 µM,kappa (KOP),< 10%
same,inhibition at 10 µM,kappa (KOP),< 10%
same,inhibition at 1 µM,NE-T transporter (h),< 10%
same,inhibition at 10 µM,NE-T transporter (h),< 10%
same,inhibition at 1 µM,NT1 (h) (NTS1),< 10%
same,inhibition at 10 µM,NT1 (h) (NTS1),< 10%
same,inhibition at 1 µM,NK2 (h); 1 µM,< 10%
same,% Inhibition at 10 µM,NK2 (h); 10 µM,54.8%
same,inhibition at 10 µM,NK2 (h); 10 µM,> 50%
same,IC50,TRα,> 1.5 µM
same,inhibition at 1 µM,5-HT5A (h),< 10%
same,inhibition at 10 µM,5-HT5A (h),< 10%
same,EC50,M2; agonist,> 12.5 µM
same,IC50,M2; antagonist,> 12.5 µM
same,activity at 1 µM,CaMKIIβ(h),89%
same,activity at 10 µM,CaMKIIβ(h),92%
same,activity at 1 µM,Rsk3(h),107%
same,activity at 10 µM,Rsk3(h),104%
same,fraction unbound,plasma protein binding,0.011
same,activity at 1 µM,CDK5/p35(h),97%
same,activity at 10 µM,CDK5/p35(h),107%
same,activity at 1 µM,FGFR1(h),103%
same,activity at 10 µM,FGFR1(h),125%
same,activity at 1 µM,PKCβI(h),97%
same,activity at 10 µM,PKCβI(h),87%
